{
  "source": "ChEMBL document CHEMBL5442175",
  "about": "“EUbOPEN Chemogenomics Library - PDSP Secondary Binding” (2024)",
  "key": {"[1]": {"molecular_target": "T1, 5-hydroxytryptamine receptor 3A (Homo sapiens, UniProt P46098)", "T1 sequence (P46098 whole entry)": "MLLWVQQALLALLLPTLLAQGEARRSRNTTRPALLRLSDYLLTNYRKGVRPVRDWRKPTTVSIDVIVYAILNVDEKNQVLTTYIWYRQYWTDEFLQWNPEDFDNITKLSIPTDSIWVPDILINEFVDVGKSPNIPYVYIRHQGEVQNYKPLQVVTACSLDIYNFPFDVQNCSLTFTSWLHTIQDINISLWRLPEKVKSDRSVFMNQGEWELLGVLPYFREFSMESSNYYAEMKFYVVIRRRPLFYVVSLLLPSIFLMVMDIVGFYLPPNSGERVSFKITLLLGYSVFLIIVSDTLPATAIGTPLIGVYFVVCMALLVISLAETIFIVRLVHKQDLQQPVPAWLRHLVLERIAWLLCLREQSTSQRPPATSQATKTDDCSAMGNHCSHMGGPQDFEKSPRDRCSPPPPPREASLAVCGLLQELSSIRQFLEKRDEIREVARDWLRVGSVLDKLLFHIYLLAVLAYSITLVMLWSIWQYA", "test": "(§1) PDSP Secondary Binding target: HTR3A - Compounds are tested at 10 uM concentration, plate are incubated at room temperature in the dark for 90 minutes. Reaction are stopped by vacuum filtration onto 0.3% polyethyleneimine soaked filter mats using Filtermate harvester. Scintillation cocktail is then melted onto microwave-dried filters on a hot plate and the radio activity is counted in Microbia counter."}, "[2]": {"molecular_target": "Kappa-type opioid receptor (Homo sapiens, UniProt P41145)", "sequence (P41145 whole entry)": "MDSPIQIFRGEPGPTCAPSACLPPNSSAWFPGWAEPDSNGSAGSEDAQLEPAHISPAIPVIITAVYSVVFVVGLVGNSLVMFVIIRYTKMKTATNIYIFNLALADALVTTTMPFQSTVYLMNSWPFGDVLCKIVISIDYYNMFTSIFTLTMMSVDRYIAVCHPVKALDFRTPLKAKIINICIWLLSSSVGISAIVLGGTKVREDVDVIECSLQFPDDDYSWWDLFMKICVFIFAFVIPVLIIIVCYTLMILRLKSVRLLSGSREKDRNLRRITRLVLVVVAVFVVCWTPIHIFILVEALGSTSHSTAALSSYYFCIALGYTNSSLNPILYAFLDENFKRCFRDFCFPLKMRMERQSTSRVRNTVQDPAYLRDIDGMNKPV", "test": "as §1, with “OPRK1” for “HTR3A”"}, "Mu-type opioid receptor": {"molecular_target": "Mu-type opioid receptor (Homo sapiens, UniProt P35372)", "sequence (P35372 whole entry)": "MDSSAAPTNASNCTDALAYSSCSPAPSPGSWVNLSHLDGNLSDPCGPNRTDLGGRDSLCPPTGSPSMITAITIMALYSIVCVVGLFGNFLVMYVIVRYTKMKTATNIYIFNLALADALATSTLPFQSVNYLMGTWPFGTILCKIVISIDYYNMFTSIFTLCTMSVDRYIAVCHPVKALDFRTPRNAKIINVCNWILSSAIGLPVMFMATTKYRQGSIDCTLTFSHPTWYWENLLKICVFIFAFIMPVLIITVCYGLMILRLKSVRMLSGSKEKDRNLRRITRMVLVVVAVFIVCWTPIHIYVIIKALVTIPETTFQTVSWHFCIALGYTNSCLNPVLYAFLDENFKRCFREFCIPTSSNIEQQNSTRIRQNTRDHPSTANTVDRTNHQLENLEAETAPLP", "test": "as §1, with “OPRM1” for “HTR3A”"}, "[3]": {"molecular_target": "T2, Muscarinic acetylcholine receptor M4 (Homo sapiens, UniProt P08173)", "T2 sequence (P08173 whole entry)": "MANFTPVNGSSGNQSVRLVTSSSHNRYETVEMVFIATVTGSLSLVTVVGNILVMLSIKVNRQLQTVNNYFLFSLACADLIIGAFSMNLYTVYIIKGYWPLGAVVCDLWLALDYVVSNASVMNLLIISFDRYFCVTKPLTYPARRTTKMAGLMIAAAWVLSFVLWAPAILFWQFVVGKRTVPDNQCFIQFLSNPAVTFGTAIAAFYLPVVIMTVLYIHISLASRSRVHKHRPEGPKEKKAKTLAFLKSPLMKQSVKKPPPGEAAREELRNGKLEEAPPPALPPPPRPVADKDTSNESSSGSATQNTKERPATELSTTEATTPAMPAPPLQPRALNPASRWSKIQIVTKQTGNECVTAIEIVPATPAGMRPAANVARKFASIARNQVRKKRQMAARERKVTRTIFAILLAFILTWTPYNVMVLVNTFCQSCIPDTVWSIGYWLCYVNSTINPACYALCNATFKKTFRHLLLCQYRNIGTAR", "test": "as §1, with “CHRM4” for “HTR3A”"}, "[4]": {"molecular_target": "5-hydroxytryptamine receptor 2B (Homo sapiens, UniProt P41595)", "sequence (P41595 whole entry)": "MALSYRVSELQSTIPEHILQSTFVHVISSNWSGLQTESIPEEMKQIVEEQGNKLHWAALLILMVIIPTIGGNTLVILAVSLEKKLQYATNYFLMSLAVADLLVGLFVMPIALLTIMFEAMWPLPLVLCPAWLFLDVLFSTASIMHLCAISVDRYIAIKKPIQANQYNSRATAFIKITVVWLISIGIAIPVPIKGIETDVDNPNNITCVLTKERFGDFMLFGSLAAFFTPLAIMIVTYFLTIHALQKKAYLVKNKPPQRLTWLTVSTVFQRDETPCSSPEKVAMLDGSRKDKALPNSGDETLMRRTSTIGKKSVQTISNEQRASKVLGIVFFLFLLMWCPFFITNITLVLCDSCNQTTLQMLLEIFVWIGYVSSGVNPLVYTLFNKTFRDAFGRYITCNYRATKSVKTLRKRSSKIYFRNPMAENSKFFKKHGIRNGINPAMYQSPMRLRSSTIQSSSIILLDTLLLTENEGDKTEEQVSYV", "test": "as §1, with “HTR2B” for “HTR3A”"}, "Histamine H2 receptor": {"molecular_target": "Histamine H2 receptor (Homo sapiens, UniProt P25021)", "sequence (P25021 whole entry)": "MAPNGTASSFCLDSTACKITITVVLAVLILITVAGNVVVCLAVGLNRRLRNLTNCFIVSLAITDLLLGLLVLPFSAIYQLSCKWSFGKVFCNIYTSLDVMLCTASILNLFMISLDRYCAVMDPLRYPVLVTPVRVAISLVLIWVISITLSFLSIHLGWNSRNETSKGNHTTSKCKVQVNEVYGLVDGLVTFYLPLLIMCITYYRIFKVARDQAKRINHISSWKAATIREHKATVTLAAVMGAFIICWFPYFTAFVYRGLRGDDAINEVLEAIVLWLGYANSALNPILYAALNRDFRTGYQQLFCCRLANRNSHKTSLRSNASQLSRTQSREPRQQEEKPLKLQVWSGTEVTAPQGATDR", "test": "as §1, with “HRH2” for “HTR3A”"}, "[5]": {"molecular_target": "T3, Alpha-2B adrenergic receptor (Homo sapiens, UniProt P18089)", "T3 sequence (P18089 whole entry)": "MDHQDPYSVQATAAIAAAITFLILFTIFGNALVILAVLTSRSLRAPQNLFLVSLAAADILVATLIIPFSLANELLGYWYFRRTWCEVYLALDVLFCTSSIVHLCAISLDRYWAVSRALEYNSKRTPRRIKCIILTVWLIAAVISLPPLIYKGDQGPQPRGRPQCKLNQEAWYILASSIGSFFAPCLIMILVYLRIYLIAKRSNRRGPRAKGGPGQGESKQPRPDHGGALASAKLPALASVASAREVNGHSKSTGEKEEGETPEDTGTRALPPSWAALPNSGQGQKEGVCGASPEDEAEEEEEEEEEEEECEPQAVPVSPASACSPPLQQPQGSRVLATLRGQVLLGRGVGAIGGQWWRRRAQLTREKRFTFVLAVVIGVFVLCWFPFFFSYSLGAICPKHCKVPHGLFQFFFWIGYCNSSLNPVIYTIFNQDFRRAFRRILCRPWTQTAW", "test": "as §1, with “ADRA2B” for “HTR3A”"}, "[6]": {"molecular_target": "5-hydroxytryptamine receptor 1B (Homo sapiens, UniProt P28222)", "sequence (P28222 whole entry)": "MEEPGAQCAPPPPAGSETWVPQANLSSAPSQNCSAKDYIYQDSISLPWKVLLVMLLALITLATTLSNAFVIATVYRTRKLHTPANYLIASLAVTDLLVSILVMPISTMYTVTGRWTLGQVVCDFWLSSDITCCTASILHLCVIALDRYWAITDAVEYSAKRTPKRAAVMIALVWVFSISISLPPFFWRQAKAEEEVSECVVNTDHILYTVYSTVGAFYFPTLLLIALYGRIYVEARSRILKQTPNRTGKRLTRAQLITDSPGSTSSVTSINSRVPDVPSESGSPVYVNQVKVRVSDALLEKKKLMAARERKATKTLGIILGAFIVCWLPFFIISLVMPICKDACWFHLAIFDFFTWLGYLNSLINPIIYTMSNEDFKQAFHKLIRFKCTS", "test": "as §1, with “HTR1B” for “HTR3A”"}, "[7]": {"molecular_target": "Sodium-dependent noradrenaline transporter (Homo sapiens, UniProt P23975)", "sequence (P23975 whole entry)": "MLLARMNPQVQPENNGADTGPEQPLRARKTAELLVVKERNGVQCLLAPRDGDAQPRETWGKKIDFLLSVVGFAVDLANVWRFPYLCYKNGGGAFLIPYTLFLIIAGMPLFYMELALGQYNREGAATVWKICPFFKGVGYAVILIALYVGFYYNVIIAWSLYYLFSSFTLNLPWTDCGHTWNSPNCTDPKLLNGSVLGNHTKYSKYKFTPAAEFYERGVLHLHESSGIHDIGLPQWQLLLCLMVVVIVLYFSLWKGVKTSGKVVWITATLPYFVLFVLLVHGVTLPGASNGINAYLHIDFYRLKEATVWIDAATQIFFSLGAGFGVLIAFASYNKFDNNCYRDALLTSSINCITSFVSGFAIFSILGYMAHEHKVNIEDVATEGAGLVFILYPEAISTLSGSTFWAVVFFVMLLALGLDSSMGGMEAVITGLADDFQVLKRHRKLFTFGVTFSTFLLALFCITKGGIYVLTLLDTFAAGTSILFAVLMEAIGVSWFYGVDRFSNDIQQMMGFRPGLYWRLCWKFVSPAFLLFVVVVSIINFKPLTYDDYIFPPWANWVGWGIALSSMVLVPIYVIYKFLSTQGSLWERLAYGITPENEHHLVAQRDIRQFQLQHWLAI", "test": "as §1, with “SLC6A2” for “HTR3A”"}, "[8]": {"molecular_target": "T4, Alpha-2A adrenergic receptor (Homo sapiens, UniProt P08913)", "T4 sequence (P08913 whole entry)": "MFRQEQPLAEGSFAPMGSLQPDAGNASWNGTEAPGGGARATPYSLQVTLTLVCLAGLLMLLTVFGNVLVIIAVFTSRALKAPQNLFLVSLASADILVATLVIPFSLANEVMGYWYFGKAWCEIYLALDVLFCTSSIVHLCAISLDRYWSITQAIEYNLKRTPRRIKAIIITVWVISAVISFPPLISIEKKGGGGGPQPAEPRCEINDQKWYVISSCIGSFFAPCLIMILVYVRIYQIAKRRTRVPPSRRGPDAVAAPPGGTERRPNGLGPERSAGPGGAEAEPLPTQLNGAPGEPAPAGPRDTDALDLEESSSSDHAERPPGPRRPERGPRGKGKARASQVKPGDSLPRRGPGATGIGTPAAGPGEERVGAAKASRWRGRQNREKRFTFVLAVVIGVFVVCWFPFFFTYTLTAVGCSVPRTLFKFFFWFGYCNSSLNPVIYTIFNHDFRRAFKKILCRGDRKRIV", "test": "as §1, with “ADRA2A” for “HTR3A”"}, "[9]": {"molecular_target": "T5, Alpha-2C adrenergic receptor (Homo sapiens, UniProt P18825)", "T5 sequence (P18825 whole entry)": "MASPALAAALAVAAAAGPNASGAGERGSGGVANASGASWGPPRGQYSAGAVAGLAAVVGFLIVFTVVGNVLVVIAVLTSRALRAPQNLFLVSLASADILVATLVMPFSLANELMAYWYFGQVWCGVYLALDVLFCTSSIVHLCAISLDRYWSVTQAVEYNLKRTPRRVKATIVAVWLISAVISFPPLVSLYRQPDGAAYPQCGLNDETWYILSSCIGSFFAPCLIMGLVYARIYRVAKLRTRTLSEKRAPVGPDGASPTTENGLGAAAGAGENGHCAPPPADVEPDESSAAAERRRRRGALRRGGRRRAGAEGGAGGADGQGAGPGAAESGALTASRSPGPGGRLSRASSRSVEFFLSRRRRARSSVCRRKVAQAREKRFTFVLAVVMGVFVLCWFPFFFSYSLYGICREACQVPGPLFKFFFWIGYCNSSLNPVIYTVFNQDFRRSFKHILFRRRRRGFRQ", "test": "as §1, with “ADRA2C” for “HTR3A”"}, "[10]": {"molecular_target": "Sodium-dependent dopamine transporter (Homo sapiens, UniProt Q01959)", "sequence (Q01959 whole entry)": "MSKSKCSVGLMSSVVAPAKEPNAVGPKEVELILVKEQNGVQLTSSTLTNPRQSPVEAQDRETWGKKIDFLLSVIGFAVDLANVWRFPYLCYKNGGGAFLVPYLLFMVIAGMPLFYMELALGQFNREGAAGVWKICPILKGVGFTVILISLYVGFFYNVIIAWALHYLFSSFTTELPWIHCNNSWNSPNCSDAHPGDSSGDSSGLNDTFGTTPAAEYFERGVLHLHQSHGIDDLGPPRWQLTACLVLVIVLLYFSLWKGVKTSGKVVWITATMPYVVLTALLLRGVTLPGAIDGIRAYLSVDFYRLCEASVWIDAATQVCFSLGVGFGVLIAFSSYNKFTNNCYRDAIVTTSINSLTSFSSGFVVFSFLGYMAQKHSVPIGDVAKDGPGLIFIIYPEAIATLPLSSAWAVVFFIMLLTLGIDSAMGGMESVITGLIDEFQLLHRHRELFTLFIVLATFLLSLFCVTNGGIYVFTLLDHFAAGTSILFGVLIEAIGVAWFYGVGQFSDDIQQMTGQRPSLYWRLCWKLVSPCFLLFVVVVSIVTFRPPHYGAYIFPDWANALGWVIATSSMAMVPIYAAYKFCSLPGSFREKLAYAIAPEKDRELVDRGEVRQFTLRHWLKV", "test": "as §1, with “SLC6A3” for “HTR3A”"}, "[11]": {"molecular_target": "Muscarinic acetylcholine receptor M3 (Homo sapiens, UniProt P20309)", "sequence (P20309 whole entry)": "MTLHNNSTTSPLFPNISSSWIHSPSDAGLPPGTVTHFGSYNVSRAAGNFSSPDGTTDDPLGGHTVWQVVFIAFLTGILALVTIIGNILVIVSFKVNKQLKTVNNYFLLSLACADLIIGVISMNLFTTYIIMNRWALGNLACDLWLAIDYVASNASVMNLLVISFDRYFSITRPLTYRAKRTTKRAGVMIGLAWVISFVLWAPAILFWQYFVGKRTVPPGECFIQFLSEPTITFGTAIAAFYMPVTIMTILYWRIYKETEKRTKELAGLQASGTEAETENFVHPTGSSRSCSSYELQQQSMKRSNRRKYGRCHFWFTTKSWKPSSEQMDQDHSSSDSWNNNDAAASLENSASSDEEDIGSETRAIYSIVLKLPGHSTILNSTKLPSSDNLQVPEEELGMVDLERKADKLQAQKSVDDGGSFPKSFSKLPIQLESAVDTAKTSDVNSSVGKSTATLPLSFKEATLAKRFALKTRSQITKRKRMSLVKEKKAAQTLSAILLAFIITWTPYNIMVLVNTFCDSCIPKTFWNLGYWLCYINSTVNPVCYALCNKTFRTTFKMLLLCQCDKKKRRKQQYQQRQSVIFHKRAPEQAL", "test": "as §1, with “CHRM3” for “HTR3A”"}},
  "data": [
    {"smiles": "CCOC(=O)c1c(C)[nH]c2ccc3c(c12)CN1CCc2cc(OC)ccc2C1O3", "note": "(stereo not drawn)", "values": [
      {"measurement": "Ki", "setting": "[1]", "value": 1660, "unit": "nM"},
      {"measurement": "Ki", "setting": "[2]", "value": 1940, "unit": "nM"},
      {"measurement": "Ki", "setting": "Mu-type opioid receptor", "value": 1130, "unit": "nM"},
      {"measurement": "Ki", "setting": "[3]", "value": 46.9, "unit": "nM"},
      {"measurement": "Ki", "setting": "[4]", "value": 500, "unit": "nM"},
      {"measurement": "Ki", "setting": "Histamine H2 receptor", "value": 2840, "unit": "nM"},
      {"measurement": "Ki", "setting": "[5]", "value": 3230, "unit": "nM"},
      {"measurement": "Ki", "setting": "[6]", "value": 2160, "unit": "nM"},
      {"measurement": "Ki", "setting": "[7]", "value": 2850, "unit": "nM"},
      {"measurement": "Ki", "setting": "[8]", "value": 767, "unit": "nM"},
      {"measurement": "Ki", "setting": "[9]", "value": 585, "unit": "nM"},
      {"measurement": "Ki", "setting": "[10]", "value": 673, "unit": "nM"},
      {"measurement": "Ki", "setting": "[11]", "value": 173, "unit": "nM"}
    ]}
  ]
}
